For assay [1], the target named is human NK1 receptor (Homo sapiens, UniProt P25103). Kind of assay: NK1 receptor binding, [3H]substance P displacement, CHO cell membranes.
Assay [2] addresses T1, Recombinant human NK3 (hNK3) receptor (Homo sapiens, UniProt P29371).
T1 construct: expressed in transfected cells
T1 sequence (P29371 1-465): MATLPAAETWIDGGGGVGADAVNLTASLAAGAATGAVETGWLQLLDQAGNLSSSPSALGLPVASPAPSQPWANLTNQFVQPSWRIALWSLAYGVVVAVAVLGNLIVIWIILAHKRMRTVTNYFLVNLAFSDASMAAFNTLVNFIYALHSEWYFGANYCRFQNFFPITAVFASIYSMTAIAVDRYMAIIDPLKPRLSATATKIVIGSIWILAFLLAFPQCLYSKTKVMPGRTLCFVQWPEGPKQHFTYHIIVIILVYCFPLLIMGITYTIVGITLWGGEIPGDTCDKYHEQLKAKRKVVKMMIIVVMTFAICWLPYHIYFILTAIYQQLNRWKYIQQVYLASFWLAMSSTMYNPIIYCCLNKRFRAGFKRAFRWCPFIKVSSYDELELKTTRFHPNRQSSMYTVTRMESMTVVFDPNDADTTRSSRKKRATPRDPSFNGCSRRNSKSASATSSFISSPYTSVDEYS
As to the kind of experiment: NK3 receptor binding, [3H]SR142801 displacement, membrane preparations. Here is the method: Non specific binding was determined using 10 μM SB222200. Assay buffer consisted of Tris-HCl (50 mM, pH 7.4), BSA (0.1%), MnCl2 (4 mM) and phosphoramidon (1 μM). Membrane preparations of hNK3 receptors (approximately 2.5 μg/well in a 96 well plate) were used to initiate the incubation for 90 min at room temperature. This assay was terminated by rapid filtration under vacuum through GF/C filters, presoaked for 90 min with PEI (0.3%), with 3×0.5 ml washes of ice-cold Tris buffer (50 mM, pH 7.4) containing 0.1% BSA. The radioactivity retained on the filters was measured by scintillation counting. All assays were performed in duplicate in at least two separate experiments.

[3] abbreviates: first value of the cell pKi NK1/NK3, human NK1 receptor, [3H]substance P.
The mark [4] stands for this setting: second value of the cell pKi NK1/NK3, hNK3 receptor, [3H]SR142801.
Setting [5] is: first value of the cell NK1/NK3, read-out: pKi NK1 (converted).
Setting [6] is: second value of the cell NK1/NK3, read-out: pKi NK3 (converted).

Where two headings read alike, the source gives them in different places.

Data on 20 compounds can be found in patent US8404708B2, “Dual NK1/NK3 receptor antagonists” (Hoffmann-La Roche Inc., priority 2004, dated 2013).

Chain of human NK1 receptor (P25103 whole entry): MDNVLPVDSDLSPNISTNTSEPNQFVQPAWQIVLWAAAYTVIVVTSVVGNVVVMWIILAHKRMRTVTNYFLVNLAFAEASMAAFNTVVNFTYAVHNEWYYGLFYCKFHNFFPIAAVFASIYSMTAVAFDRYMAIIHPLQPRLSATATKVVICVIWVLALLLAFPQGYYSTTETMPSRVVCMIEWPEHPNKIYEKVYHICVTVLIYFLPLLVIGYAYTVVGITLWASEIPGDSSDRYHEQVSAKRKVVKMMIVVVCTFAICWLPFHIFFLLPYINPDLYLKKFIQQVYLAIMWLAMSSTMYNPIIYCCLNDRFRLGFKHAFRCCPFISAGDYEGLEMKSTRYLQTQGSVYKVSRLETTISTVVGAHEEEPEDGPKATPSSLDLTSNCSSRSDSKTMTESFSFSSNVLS

In the case of `CC(=O)N1CCN(c2cc(-c3ccccc3Cl)c(N(C)C(=O)C(C)(C)c3cc(C(F)(F)F)cc(C(F)(F)F)c3)cn2)CC1` [Example 61, N-[6-(4-Acetyl-piperazin-1-yl)-4-(2-chloro-phenyl)-pyridin-3-yl]-2-(3,5-bis-trifluoromethyl-phenyl)-N-methyl-isobutyramide], the values for the Ki in assay [1] (setting [3]) and in assay [2] (setting [4]) were 0.417 nM and 14.1 nM, respectively.
Consider `CN(C(=O)C(C)(C)c1cc(C(F)(F)F)cc(C(F)(F)F)c1)c1cnc(N2CC[C@H](O)C2)cc1-c1ccccc1Cl` [Example 46, (S)-2-(3,5-Bis-trifluoromethyl-phenyl)-N-[4-(2-chloro-phenyl)-6-(3-hydroxy-pyrrolidin-1-yl)-pyridin-3-yl]-N-methyl-isobutyramide], for which the figures for the Ki in assay [1] (setting [3]) and in assay [2] (setting [4]) were 0.603 nM and 8.71 nM, respectively.
The matching figures for `Cc1ccccc1-c1cc(NC[C@H](O)CO)ncc1N(C)C(=O)C(C)(C)c1cc(C(F)(F)F)cc(C(F)(F)F)c1` [Example 122, (S)-2-(3,5-Bis-trifluoromethyl-phenyl)-N-[6-(2,3-dihydroxy-propylamino)-4-o-tolyl-pyridin-3-yl]-N-methyl-isobutyramide]: 1.91 nM and 19.5 nM.
Regarding `Cc1ccccc1-c1cc(NC[C@@H](O)CO)ncc1N(C)C(=O)C(C)(C)c1cc(C(F)(F)F)cc(C(F)(F)F)c1` [Example 123, (R)-2-(3,5-Bis-trifluoromethyl-phenyl)-N-[6-(2,3-dihydroxy-propylamino)-4-o-tolyl-pyridin-3-yl]-N-methyl-isobutyramide], the values for the Ki in assay [1] (setting [3]) and in assay [2] (setting [4]) were 2.51 nM and 12.6 nM, respectively.
Taken in the same sequence, the figures for `Cc1cc(F)ccc1-c1cc(N2CC[C@H](O)[C@H]2CO)ncc1N(C)C(=O)C(C)(C)c1cc(C(F)(F)F)cc(C(F)(F)F)c1` [Example 155, (2R,3S)-2-(3,5-Bis-trifluoromethyl-phenyl)-N-[4-(4-fluoro-2-methyl-phenyl)-6-(3-hydroxy-2-hydroxymethyl-pyrrolidin-1-yl)-pyridin-3-yl]-N-methyl-isobutyramide] were 1.74 nM and 0.871 nM.
Regarding `CN(C(=O)C(C)(C)c1cc(C(F)(F)F)cc(C(F)(F)F)c1)c1cnc(N2CCC[C@H]2CO)cc1-c1ccccc1` [Example 289, (S)-2-(3,5-Bis-trifluoromethyl-phenyl)-N-[6-(2-hydroxymethyl-pyrrolidin-1-yl)-4-phenyl-pyridin-3-yl]-N-methyl-isobutyramide], the Ki in assay [1] (setting [5]) was 3.02 nM; in assay [2] (setting [6]), 5.01 nM.
Regarding `Cc1cc(F)ccc1-c1cc(N2C[C@H](O)C[C@H]2CO)ncc1N(C)C(=O)C(C)(C)c1cc(F)cc(F)c1` [Example 29, (2S,4R)-2-(3,5-Difluoro-phenyl)-N-[4-(4-fluoro-2-methyl-phenyl)-6-(4-hydroxy-2-hydroxymethyl-pyrrolidin-1-yl)-pyridin-3-yl]-N-methyl-isobutyramide], the Ki is 1.55 nM in assay [1] (setting [3]) and 3.55 nM in assay [2] (setting [4]).
The matching figures for `CC(=O)N[C@H]1CCN(c2cc(-c3ccc(F)cc3C)c(N(C)C(=O)C(C)(C)c3cc(C(F)(F)F)cc(C(F)(F)F)c3)cn2)C1` [Example 99, (S)-N-[6-(3-Acetylamino-pyrrolidin-1-yl)-4-(4-fluoro-2-methyl-phenyl)-pyridin-3-yl]-2-(3,5-bis-trifluoromethyl-phenyl)-N-methyl-isobutyramide]: 0.813 nM and 55 nM.
Taken in the same sequence, the figures for `CN(C(=O)C(C)(C)c1cc(C(F)(F)F)cc(C(F)(F)F)c1)c1cnc(N2CC[C@H](O)[C@H]2CO)cc1-c1ccccc1Cl` [Example 138, (2R,3S)-2-(3,5-Bis-trifluoromethyl-phenyl)-N-[4-(2-chloro-phenyl)-6-(3-hydroxy-2-hydroxymethyl-pyrrolidin-1-yl)-pyridin-3-yl]-N-methyl-isobutyramide] were 1.66 nM and 1 nM.
In the case of `Cc1c(F)cccc1-c1cc(N2CC[C@H](O)[C@H]2CO)ncc1N(C)C(=O)C(C)(C)c1cc(C(F)(F)F)cc(C(F)(F)F)c1` [Example 275, (2R,3S)-2-(3,5-Bis-trifluoromethyl-phenyl)-N-[4-(3-fluoro-2-methyl-phenyl)-6-(3-hydroxy-2-hydroxymethyl-pyrrolidin-1-yl)-pyridin-3-yl]-N-methyl-isobutyramide], the values for the Ki in assay [1] (setting [5]) and in assay [2] (setting [6]) were 1.48 nM and 0.575 nM, respectively.
Consider `Cc1cc(F)ccc1-c1cc(N2CC[C@H](NS(C)(=O)=O)C2)ncc1N(C)C(=O)C(C)(C)c1cc(C(F)(F)F)cc(C(F)(F)F)c1` [Example 104, (S)-2-(3,5-Bis-trifluoromethyl-phenyl)-N-[4-(4-fluoro-2-methyl-phenyl)-6-(3-methanesulfonylamino-pyrrolidin-1-yl)-pyridin-3-yl]-N-methyl-isobutyramide], for which the Ki in assay [1] (setting [3]) is 1.62 nM; in assay [2] (setting [4]) it was 6.76 nM.
In the case of `CN(C(=O)C(C)(C)c1cc(C(F)(F)F)cc(C(F)(F)F)c1)c1cnc(N2CCC(CO)C2)cc1-c1ccccc1Cl` (racemic) [Example 171, (RS)-2-(3,5-Bis-trifluoromethyl-phenyl)-N-[4-(2-chloro-phenyl)-6-(3-hydroxymethyl-pyrrolidin-1-yl)-pyridin-3-yl]-N-methyl-isobutyramide], the Ki in assay [1] (setting [3]) is 3.72 nM; in assay [2] (setting [4]), 24.5 nM.
As to `COc1ccccc1-c1cc(N2CC[C@H](O)[C@H]2CO)ncc1N(C)C(=O)C(C)(C)c1cc(C(F)(F)F)cc(C(F)(F)F)c1` [Example 263, (2R,3S)-2-(3,5-Bis-trifluoromethyl-phenyl)-N-[6-(3-hydroxy-2-hydroxymethyl-pyrrolidin-1-yl)-4-(2-methoxy-phenyl)-pyridin-3-yl]-N-methyl-isobutyramide], the Ki in assay [1] (setting [5]) is 1.02 nM; in assay [2] (setting [6]), 1.35 nM.
With `Cc1cc(F)ccc1-c1cc(NCCO)ncc1N(C)C(=O)C(C)(C)c1cc(C(F)(F)F)cc(C(F)(F)F)c1` [Example 68, 2-(3,5-Bis-trifluoromethyl-phenyl)-N-[4-(4-fluoro-2-methyl-phenyl)-6-(2-hydroxy-ethylamino)-pyridin-3-yl]-N-methyl-isobutyramide], the values for the Ki in assay [1] (setting [3]) and in assay [2] (setting [4]) were 1.45 nM and 3.24 nM, respectively.
As to `CN(C(=O)C(C)(C)c1cc(C(F)(F)F)cc(C(F)(F)F)c1)c1cnc(N2CCCCC2CO)cc1-c1ccccc1Cl` (racemic) [Example 141, (RS)-2-(3,5-Bis-trifluoromethyl-phenyl)-N-[4′-(2-chloro-phenyl)-2-hydroxymethyl-3,4,5,6-tetrahydro-2H-[1,2′]bipyridinyl-5′-yl]-N-methyl-isobutyramide], the Ki is 6.46 nM in assay [1] (setting [3]) and 18.6 nM in assay [2] (setting [4]).
As for `CN(C(=O)C(C)(C)c1cc(C(F)(F)F)cc(C(F)(F)F)c1)c1cnc(N2CCC[C@H]2CO)cc1-c1ccc(Cl)cc1` [Example 287, (S)-2-(3,5-Bis-trifluoromethyl-phenyl)-N-[4-(4-chloro-phenyl)-6-(2-hydroxymethyl-pyrrolidin-1-yl)-pyridin-3-yl]-N-methyl-isobutyramide], the Ki in assay [1] (setting [5]) was 6.31 nM; in assay [2] (setting [6]) it was 7.41 nM.
Regarding `CN(C(=O)C(C)(C)c1cc(C(F)(F)F)cc(C(F)(F)F)c1)c1cnc(N2CCCC[C@H]2CO)cc1-c1ccccc1Cl` [Example 161, (S)-2-(3,5-Bis-trifluoromethyl-phenyl)-N-[4′-(2-chloro-phenyl)-2-hydroxymethyl-3,4,5,6-tetrahydro-2H-[1,2′]bipyridinyl-5′-yl]-N-methyl-isobutyramide], the Ki in assay [1] (setting [3]) is 11.5 nM; in assay [2] (setting [4]) it was 6.76 nM.
As for `CN(C(=O)C(C)(C)c1cc(C(F)(F)F)cc(C(F)(F)F)c1)c1cnc(N2C[C@H](O)C[C@H]2CO)cc1-c1ccc(F)c(Cl)c1` [Example 212, (2S,4R)-2-(3,5-Bis-trifluoromethyl-phenyl)-N-[4-(3-chloro-4-fluoro-phenyl)-6-(4-hydroxy-2-hydroxymethyl-pyrrolidin-1-yl)-pyridin-3-yl]-N-methyl-isobutyramide], the Ki in assay [1] (setting [5]) was 0.813 nM; in assay [2] (setting [6]), 2.51 nM.
Regarding `Cc1cc(F)ccc1-c1cc(N2CCC[C@H]2CO)ncc1N(C)C(=O)C(C)(C)c1cc(C(F)(F)F)cc(C(F)(F)F)c1` [Example 165, (S)-2-(3,5-Bis-trifluoromethyl-phenyl)-N-[4-(4-fluoro-2-methyl-phenyl)-6-(2-hydroxymethyl-pyrrolidin-1-yl)-pyridin-3-yl]-N-methyl-isobutyramide], the Ki in assay [1] (setting [3]) was 2.09 nM; in assay [2] (setting [4]) it was 1.1 nM.
As to `Cc1ccc(-c2cc(N3C[C@H](O)C[C@H]3CO)ncc2N(C)C(=O)C(C)(C)c2cc(C(F)(F)F)cc(C(F)(F)F)c2)cc1F` [Example 210, (2S,4R)-2-(3,5-Bis-trifluoromethyl-phenyl)-N-[4-(3-fluoro-4-methyl-phenyl)-6-(4-hydroxy-2-hydroxymethyl-pyrrolidin-1-yl)-pyridin-3-yl]-N-methyl-isobutyramide], the Ki in assay [1] (setting [5]) is 2.29 nM; in assay [2] (setting [6]), 13.8 nM.
